{
  "source": "patent US10364247B2",
  "about": "“Preparation and use of novel protein kinase inhibitors” (Ruijin Hospital Affiliated to Shanghai Jiao Tong University …, priority 2015, dated 2019)",
  "assay_in_all_cases": "KINOMEscan competition binding",
  "key": {"[1]": {"biological_target": "T1, SIK2 (Homo sapiens, UniProt Q9H0K1)", "T1 construct": "purchased KINOMEscan (screening service)", "conditions": "read-out: Percent Control", "how_it_was_run": "(§1)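 % Ctrl (lower = stronger binding) reflects competition between 10 μM compound and an immobilized ligand targeting the active site.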"}, "[2]": {"biological_target": "ABL1(F317I)-phosphorylated (Homo sapiens, UniProt P00519, F317I)", "conditions": "read-out: Percent Control", "how_it_was_run": "as §1"}, "[3]": {"biological_target": "T2, DDR2 (Homo sapiens, UniProt Q16832)", "T2 construct": "purchased KINOMEscan (screening service)", "conditions": "read-out: Percent Control", "how_it_was_run": "as §1"}, "[4]": {"biological_target": "T3, LYN (Homo sapiens, UniProt P07948)", "T3 construct": "purchased KINOMEscan (panel service)", "conditions": "read-out: Percent Control", "how_it_was_run": "as §1"}, "[5]": {"biological_target": "FGFR1 (Homo sapiens, UniProt P11362)", "conditions": "read-out: Percent Control", "how_it_was_run": "as §1"}, "[6]": {"biological_target": "MLK1 (Homo sapiens, UniProt P80192)", "sequence (P80192 whole entry)": "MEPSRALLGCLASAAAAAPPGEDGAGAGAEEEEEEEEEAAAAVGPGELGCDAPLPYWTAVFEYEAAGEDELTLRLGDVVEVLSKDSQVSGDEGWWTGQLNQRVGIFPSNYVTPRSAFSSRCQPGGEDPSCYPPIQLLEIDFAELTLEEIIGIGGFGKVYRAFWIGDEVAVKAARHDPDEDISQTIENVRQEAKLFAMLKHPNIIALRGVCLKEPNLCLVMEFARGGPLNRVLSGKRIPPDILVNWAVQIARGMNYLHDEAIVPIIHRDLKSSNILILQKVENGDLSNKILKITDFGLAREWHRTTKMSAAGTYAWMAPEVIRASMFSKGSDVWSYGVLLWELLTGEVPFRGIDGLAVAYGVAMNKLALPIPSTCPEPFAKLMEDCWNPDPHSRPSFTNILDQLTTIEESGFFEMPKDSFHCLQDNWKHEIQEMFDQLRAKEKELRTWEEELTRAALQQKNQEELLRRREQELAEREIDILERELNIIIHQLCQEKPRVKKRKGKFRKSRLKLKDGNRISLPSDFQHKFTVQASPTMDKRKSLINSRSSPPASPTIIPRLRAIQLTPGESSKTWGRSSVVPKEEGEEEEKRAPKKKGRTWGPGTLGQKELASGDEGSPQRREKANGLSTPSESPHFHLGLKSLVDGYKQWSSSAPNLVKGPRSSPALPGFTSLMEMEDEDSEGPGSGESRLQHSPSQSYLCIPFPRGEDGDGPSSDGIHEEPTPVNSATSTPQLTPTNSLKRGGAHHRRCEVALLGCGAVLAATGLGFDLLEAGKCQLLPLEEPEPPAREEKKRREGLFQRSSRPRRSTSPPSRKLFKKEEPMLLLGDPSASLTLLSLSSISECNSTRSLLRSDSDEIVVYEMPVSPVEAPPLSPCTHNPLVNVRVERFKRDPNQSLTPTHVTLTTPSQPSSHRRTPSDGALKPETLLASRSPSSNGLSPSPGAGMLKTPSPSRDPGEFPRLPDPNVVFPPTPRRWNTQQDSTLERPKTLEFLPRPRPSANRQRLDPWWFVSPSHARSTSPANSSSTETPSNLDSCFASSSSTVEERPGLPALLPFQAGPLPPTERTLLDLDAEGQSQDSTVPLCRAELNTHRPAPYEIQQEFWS", "conditions": "MLK1 (Entrez MAP3K9), read-out: Percent Control", "how_it_was_run": "as §1"}, "[7]": {"biological_target": "T4, EPHA3 (Homo sapiens, UniProt P29320)", "T4 construct": "purchased KINOMEscan (screening service)", "T4 sequence (P29320 21-983)": "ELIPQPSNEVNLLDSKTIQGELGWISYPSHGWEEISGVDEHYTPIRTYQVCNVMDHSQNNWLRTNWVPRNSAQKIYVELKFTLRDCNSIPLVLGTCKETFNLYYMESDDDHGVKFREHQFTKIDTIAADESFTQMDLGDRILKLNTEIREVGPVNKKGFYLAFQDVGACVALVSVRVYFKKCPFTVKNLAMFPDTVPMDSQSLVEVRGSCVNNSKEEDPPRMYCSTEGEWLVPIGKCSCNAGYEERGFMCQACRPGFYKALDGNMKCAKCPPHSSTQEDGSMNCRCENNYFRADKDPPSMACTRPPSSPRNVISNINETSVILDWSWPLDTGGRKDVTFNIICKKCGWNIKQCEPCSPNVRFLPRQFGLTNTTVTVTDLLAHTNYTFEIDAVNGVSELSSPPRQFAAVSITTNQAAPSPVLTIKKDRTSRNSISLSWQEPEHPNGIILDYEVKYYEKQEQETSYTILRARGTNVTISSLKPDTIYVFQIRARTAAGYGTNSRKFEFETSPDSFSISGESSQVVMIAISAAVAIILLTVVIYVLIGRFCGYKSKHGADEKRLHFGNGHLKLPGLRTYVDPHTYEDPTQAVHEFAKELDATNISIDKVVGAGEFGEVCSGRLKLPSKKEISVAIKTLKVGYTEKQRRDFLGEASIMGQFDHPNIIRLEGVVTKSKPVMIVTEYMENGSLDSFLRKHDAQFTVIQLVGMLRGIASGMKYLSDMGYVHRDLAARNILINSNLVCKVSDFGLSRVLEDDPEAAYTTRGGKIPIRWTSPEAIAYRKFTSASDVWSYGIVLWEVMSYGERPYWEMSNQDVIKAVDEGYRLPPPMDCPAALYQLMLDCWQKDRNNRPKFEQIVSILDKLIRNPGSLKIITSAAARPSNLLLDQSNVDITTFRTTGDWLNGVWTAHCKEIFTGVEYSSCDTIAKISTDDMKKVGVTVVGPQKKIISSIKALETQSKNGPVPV", "conditions": "read-out: Percent Control", "how_it_was_run": "as §1"}, "[8]": {"biological_target": "T5, PIP5K2C (Homo sapiens, UniProt Q8TBX8)", "T5 construct": "purchased KINOMEscan (screening service)", "conditions": "PIP5K2C (Entrez PIP4K2C), read-out: Percent Control", "how_it_was_run": "as §1"}, "[9]": {"biological_target": "T6, FLT3(D835Y) (Homo sapiens, UniProt P36888, D835Y)", "T6 construct": "purchased KINOMEscan (screening service)", "conditions": "read-out: Percent Control", "how_it_was_run": "as §1"}, "[10]": {"biological_target": "FGFR2 (Homo sapiens, UniProt P21802)", "sequence (P21802 22-821)": "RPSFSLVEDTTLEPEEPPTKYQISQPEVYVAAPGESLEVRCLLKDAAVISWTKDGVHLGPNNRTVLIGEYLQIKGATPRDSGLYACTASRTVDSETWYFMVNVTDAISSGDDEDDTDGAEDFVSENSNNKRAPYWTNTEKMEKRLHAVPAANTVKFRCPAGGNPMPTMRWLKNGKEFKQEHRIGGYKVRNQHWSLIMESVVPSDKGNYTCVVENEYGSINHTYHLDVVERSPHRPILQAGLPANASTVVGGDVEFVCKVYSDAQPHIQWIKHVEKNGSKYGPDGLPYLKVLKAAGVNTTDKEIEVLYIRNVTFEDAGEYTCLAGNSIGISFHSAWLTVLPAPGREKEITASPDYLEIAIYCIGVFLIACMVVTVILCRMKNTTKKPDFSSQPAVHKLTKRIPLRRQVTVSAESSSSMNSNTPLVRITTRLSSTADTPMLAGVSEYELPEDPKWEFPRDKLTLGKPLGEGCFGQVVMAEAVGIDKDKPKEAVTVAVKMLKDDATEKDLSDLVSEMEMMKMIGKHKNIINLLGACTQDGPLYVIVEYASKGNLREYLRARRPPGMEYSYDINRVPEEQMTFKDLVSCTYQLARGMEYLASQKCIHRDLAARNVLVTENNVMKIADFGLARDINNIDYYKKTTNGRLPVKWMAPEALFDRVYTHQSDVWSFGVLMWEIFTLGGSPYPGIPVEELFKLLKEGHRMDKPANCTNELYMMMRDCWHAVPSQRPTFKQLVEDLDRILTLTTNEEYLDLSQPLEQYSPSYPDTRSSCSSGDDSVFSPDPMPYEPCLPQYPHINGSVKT", "conditions": "read-out: Percent Control", "how_it_was_run": "as §1"}, "[11]": {"biological_target": "T7, EPHA8 (Homo sapiens, UniProt P29322)", "T7 construct": "purchased KINOMEscan (panel service)", "T7 sequence (P29322 28-1005)": "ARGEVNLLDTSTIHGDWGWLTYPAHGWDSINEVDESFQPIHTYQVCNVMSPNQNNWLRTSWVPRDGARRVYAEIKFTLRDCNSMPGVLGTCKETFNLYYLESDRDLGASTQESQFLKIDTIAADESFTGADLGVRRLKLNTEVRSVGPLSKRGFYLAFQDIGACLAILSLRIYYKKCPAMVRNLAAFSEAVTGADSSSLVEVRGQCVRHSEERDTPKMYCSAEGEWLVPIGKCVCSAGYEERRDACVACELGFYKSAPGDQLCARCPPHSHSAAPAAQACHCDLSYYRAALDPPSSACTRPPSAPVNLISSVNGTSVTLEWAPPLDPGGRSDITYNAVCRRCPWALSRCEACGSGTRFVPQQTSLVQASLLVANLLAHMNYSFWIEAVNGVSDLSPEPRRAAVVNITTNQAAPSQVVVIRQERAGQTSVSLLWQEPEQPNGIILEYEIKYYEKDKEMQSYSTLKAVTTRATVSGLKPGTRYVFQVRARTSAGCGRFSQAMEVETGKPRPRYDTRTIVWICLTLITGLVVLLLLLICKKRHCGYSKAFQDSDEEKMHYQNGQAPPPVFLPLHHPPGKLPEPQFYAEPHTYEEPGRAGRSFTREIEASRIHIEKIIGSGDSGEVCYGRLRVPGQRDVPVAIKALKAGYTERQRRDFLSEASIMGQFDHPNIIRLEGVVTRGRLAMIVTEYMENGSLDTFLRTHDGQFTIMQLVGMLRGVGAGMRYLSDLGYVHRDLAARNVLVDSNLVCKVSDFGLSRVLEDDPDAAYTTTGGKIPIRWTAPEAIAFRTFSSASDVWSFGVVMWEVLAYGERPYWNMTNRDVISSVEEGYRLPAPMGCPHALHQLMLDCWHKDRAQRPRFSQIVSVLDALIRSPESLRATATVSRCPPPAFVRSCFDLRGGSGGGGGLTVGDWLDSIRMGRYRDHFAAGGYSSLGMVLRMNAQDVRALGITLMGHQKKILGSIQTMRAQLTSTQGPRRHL", "conditions": "read-out: Percent Control", "how_it_was_run": "as §1"}, "[12]": {"biological_target": "ABL1(F317L)-phosphorylated (Homo sapiens, UniProt P00519, F317L)", "conditions": "read-out: Percent Control", "how_it_was_run": "as §1"}, "[13]": {"biological_target": "T8, ABL1(H396P)-nonphosphorylated (Homo sapiens, UniProt P00519, H396P)", "T8 construct": "purchased KINOMEscan (panel service)", "conditions": "read-out: Percent Control", "how_it_was_run": "as §1"}, "[14]": {"biological_target": "SIK (Homo sapiens, UniProt P57059)", "conditions": "SIK (Entrez SIK1), read-out: Percent Control", "how_it_was_run": "as §1"}, "[15]": {"biological_target": "MAP4K5 (Homo sapiens, UniProt Q9Y4K4)", "conditions": "read-out: Percent Control", "how_it_was_run": "as §1"}, "[16]": {"biological_target": "T9, TNNI3K (Homo sapiens, UniProt Q59H18)", "T9 construct": "purchased KINOMEscan (panel service)", "conditions": "read-out: Percent Control", "how_it_was_run": "as §1"}, "[17]": {"biological_target": "T10, CSF1R (Homo sapiens, UniProt P07333)", "T10 construct": "purchased KINOMEscan (panel service)", "conditions": "read-out: Percent Control", "how_it_was_run": "as §1"}, "[18]": {"biological_target": "EGFR(E746-A750del) (Homo sapiens, UniProt P00533, DEL746-750)", "conditions": "read-out: Percent Control", "how_it_was_run": "as §1"}, "[19]": {"biological_target": "SYK (Homo sapiens, UniProt P43405)", "conditions": "read-out: Percent Control", "how_it_was_run": "as §1"}, "[20]": {"biological_target": "T11, JAK2(JH1domain-catalytic) (Homo sapiens, UniProt O60674)", "T11 construct": "JAK2(JH1domain-catalytic)", "T11 sequence (O60674 849-1124 limits assumed)": "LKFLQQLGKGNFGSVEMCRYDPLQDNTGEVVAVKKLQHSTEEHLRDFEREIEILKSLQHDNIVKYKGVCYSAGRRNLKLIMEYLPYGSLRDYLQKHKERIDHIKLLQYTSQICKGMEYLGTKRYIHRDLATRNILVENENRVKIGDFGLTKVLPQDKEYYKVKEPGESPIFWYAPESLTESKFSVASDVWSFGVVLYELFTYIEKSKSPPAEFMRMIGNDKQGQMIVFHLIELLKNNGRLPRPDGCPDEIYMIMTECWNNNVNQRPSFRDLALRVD", "conditions": "read-out: Percent Control", "how_it_was_run": "as §1"}, "[21]": {"biological_target": "p38-beta (Homo sapiens, UniProt Q15759)", "sequence (Q15759 whole entry)": "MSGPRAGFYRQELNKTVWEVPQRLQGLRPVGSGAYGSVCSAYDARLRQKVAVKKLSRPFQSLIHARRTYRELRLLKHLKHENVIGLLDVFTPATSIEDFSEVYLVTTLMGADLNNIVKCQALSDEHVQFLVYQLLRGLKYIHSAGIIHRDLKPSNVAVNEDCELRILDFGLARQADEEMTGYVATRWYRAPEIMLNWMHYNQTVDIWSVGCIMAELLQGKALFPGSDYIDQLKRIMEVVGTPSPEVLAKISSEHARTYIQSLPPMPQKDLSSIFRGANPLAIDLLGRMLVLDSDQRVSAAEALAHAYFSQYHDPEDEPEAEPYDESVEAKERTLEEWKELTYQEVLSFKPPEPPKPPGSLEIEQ", "conditions": "p38-beta (Entrez MAPK11), read-out: Percent Control", "how_it_was_run": "as §1"}, "[22]": {"test_system": "FLT3(ITD)", "conditions": "10 μM", "how_it_was_run": "as §1"}, "[23]": {"biological_target": "T12, ABL1(H396P)-phosphorylated (Homo sapiens, UniProt P00519, H396P)", "T12 construct": "purchased KINOMEscan (panel service)", "conditions": "read-out: Percent Control", "how_it_was_run": "as §1"}, "[24]": {"biological_target": "EGFR(G719C) (Homo sapiens, UniProt P00533, G719C)", "conditions": "read-out: Percent Control", "how_it_was_run": "as §1"}, "[25]": {"biological_target": "TNIK (Homo sapiens, UniProt Q9UKE5)", "conditions": "read-out: Percent Control", "how_it_was_run": "as §1"}, "[26]": {"biological_target": "T13, PIP5K1C (Homo sapiens, UniProt O60331)", "T13 construct": "purchased KINOMEscan (screening service)", "conditions": "read-out: Percent Control", "how_it_was_run": "as §1"}, "[27]": {"biological_target": "T14, FYN (Homo sapiens, UniProt P06241)", "T14 construct": "purchased KINOMEscan (panel service)", "conditions": "read-out: Percent Control", "how_it_was_run": "as §1"}, "[28]": {"biological_target": "T15, AURKB (Homo sapiens, UniProt Q96GD4)", "T15 construct": "purchased KINOMEscan (screening service)", "conditions": "read-out: Percent Control", "how_it_was_run": "as §1"}, "[29]": {"biological_target": "T16, IKK-beta (Homo sapiens, UniProt O14920)", "T16 construct": "purchased KINOMEscan (screening service)", "conditions": "IKK-beta (Entrez IKBKB), read-out: Percent Control", "how_it_was_run": "as §1"}, "[30]": {"biological_target": "ABL1(E255K)-phosphorylated (Homo sapiens, UniProt P00519, E255K)", "conditions": "read-out: Percent Control", "how_it_was_run": "as §1"}, "[31]": {"biological_target": "T17, DRAK1 (Homo sapiens, UniProt Q9UEE5)", "T17 construct": "purchased KINOMEscan (screening platform)", "conditions": "DRAK1 (Entrez STK17A), read-out: Percent Control", "how_it_was_run": "as §1"}, "[32]": {"biological_target": "FAK (Homo sapiens, UniProt Q05397)", "conditions": "FAK (Entrez PTK2), read-out: Percent Control", "how_it_was_run": "as §1"}, "[33]": {"biological_target": "ABL1(T315I)-phosphorylated (Homo sapiens, UniProt P00519, T315I)", "conditions": "read-out: Percent Control", "how_it_was_run": "as §1"}, "[34]": {"biological_target": "T18, BRAF(V600E) (Homo sapiens, UniProt P15056, V600E)", "T18 construct": "purchased KINOMEscan (panel service)", "conditions": "read-out: Percent Control", "how_it_was_run": "as §1"}, "[35]": {"biological_target": "T19, TAK1 (Homo sapiens, UniProt O43318)", "T19 construct": "purchased KINOMEscan (panel service)", "conditions": "TAK1 (Entrez MAP3K7), read-out: Percent Control", "how_it_was_run": "as §1"}, "[36]": {"biological_target": "T20, DRAK2 (Homo sapiens, UniProt O94768)", "T20 construct": "purchased KINOMEscan (screening service)", "T20 sequence (O94768 whole entry)": "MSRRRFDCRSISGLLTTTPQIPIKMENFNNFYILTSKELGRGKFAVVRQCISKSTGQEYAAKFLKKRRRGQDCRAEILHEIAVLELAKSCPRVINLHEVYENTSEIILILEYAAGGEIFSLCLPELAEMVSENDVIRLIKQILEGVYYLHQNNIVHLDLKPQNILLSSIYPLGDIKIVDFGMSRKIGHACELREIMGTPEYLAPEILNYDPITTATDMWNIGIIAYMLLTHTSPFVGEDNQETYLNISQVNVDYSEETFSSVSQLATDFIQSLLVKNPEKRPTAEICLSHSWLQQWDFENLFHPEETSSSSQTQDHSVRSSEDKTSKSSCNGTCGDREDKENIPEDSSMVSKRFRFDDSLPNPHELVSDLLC", "conditions": "DRAK2 (Entrez STK17B), read-out: Percent Control", "how_it_was_run": "as §1"}},
  "data": [
    {"smiles": "Cc1ccc(Nc2ncc3c(n2)N(C)CN(c2cc(NC(=O)c4cccc(C(F)(F)F)c4)ccc2C)C3)cn1", "note": "[IA-9, N-(4-methyl-3-(1-methyl-7-((6-methylpyridin-3-yl)amino)-1,4-dihydropyrimido[4,5-d]pyrimidin-3(2H)-yl)phenyl)-3-(trifluoromethyl)benzamide]", "values": [
      {"measurement": "remaining binding at 10 µM", "setting": "[1]", "result": 21, "unit": "%"},
      {"measurement": "remaining binding at 10 µM", "setting": "[2]", "result": 4.1, "unit": "%"},
      {"measurement": "remaining binding at 10 µM", "setting": "[3]", "result": 9.1, "unit": "%"},
      {"measurement": "remaining binding at 10 µM", "setting": "[4]", "result": 0.1, "unit": "%"},
      {"measurement": "remaining binding at 10 µM", "setting": "[5]", "result": 1.3, "unit": "%"},
      {"measurement": "remaining binding at 10 µM", "setting": "[6]", "result": 5.7, "unit": "%"},
      {"measurement": "remaining binding at 10 µM", "setting": "[7]", "result": 11, "unit": "%"},
      {"measurement": "remaining binding at 10 µM", "setting": "[8]", "result": 19, "unit": "%"},
      {"measurement": "remaining binding at 10 µM", "setting": "[9]", "result": 9, "unit": "%"},
      {"measurement": "remaining binding at 10 µM", "setting": "[10]", "result": 2.7, "unit": "%"},
      {"measurement": "remaining binding at 10 µM", "setting": "[11]", "result": 0.15, "unit": "%"},
      {"measurement": "remaining binding at 10 µM", "setting": "[12]", "result": 3.2, "unit": "%"},
      {"measurement": "remaining binding at 10 µM", "setting": "[13]", "result": 0.05, "unit": "%"},
      {"measurement": "remaining binding at 10 µM", "setting": "[14]", "result": 0.35, "unit": "%"},
      {"measurement": "remaining binding at 10 µM", "setting": "[15]", "result": 2.5, "unit": "%"},
      {"measurement": "remaining binding at 10 µM", "setting": "[16]", "result": 0.1, "unit": "%"},
      {"measurement": "remaining binding at 10 µM", "setting": "[17]", "result": 0.15, "unit": "%"},
      {"measurement": "remaining binding at 10 µM", "setting": "[18]", "result": 2.3, "unit": "%"},
      {"measurement": "remaining binding at 10 µM", "setting": "[19]", "result": 4.4, "unit": "%"},
      {"measurement": "remaining binding at 10 µM", "setting": "[20]", "result": 0.35, "unit": "%"},
      {"measurement": "remaining binding at 10 µM", "setting": "[21]", "result": 0, "unit": "%"},
      {"measurement": "Percent Control", "setting": "[22]", "result": 0.55, "unit": "% Ctrl"},
      {"measurement": "remaining binding at 10 µM", "setting": "[23]", "result": 0.15, "unit": "%"},
      {"measurement": "remaining binding at 10 µM", "setting": "[24]", "result": 0, "unit": "%"},
      {"measurement": "remaining binding at 10 µM", "setting": "[25]", "result": 4.8, "unit": "%"},
      {"measurement": "remaining binding at 10 µM", "setting": "[26]", "result": 21, "unit": "%"},
      {"measurement": "remaining binding at 10 µM", "setting": "[27]", "result": 0.05, "unit": "%"},
      {"measurement": "remaining binding at 10 µM", "setting": "[28]", "result": 15, "unit": "%"},
      {"measurement": "remaining binding at 10 µM", "setting": "[29]", "result": 14, "unit": "%"},
      {"measurement": "remaining binding at 10 µM", "setting": "[30]", "result": 1.2, "unit": "%"},
      {"measurement": "remaining binding at 10 µM", "setting": "[31]", "result": 22, "unit": "%"},
      {"measurement": "remaining binding at 10 µM", "setting": "[32]", "result": 6.6, "unit": "%"},
      {"measurement": "remaining binding at 10 µM", "setting": "[33]", "result": 4.1, "unit": "%"},
      {"measurement": "remaining binding at 10 µM", "setting": "[34]", "result": 0.1, "unit": "%"},
      {"measurement": "remaining binding at 10 µM", "setting": "[35]", "result": 0.1, "unit": "%"},
      {"measurement": "remaining binding at 10 µM", "setting": "[36]", "result": 17, "unit": "%"}
    ]}
  ]
}
